According to ChEMBL document CHEMBL3885881, “DrugMatrix”:

Organism: Rattus norvegicus
Test: DrugMatrix - Regimen: Daily Repeat
Format: toxicity, organism-based, Sprague-Dawley
Parameters: regimen Daily Repeat, gender Male, age 6-8 weeks
Conditions: in vivo, po, route oral GAVAGE, vehicle .5 % CMC; for ABSOLUTE BASOPHIL / ABSOLUTE EOSINOPHIL / ABSOLUTE LYMPHOCYTE / ABSOLUTE MONOCYTE / ABSOLUTE SEGMENTED NEUTROPHIL / BASOPHIL / EOSINOPHIL / ERYTHROCYTE COUNT / HEMATOCRIT / HEMOGLOBIN / LEUKOCYTE COUNT / LYMPHOCYTE / MEAN CORPUSCULAR HEMOGLOBIN / MEAN CORPUSCULAR HEMOGLOBIN CONCENTRATION / MEAN CORPUSCULAR VOLUME / MONOCYTE / NEUTROPHIL / NUCLEATED RED BLOOD CELLS / PLATELET COUNT: tissue Blood; for ALANINE AMINOTRANSFERASE / ALBUMIN / ALKALINE PHOSPHATASE / ASPARTATE AMINOTRANSFERASE / BLOOD UREA NITROGEN / CARBON DIOXIDE / CHLORIDE / CHOLESTEROL / CREATINE PHOSPHOKINASE / CREATININE / GLUCOSE / LACTATE DEHYDROGENASE / LIPASE / PHOSPHORUS / POTASSIUM / SODIUM / TOTAL BILIRUBIN / TOTAL PROTEIN / URIC ACID: tissue Plasma
[1] = 0 mg/kg, 72 h, dose level Control, time 3 day
[2] = 0 mg/kg, 120 h, dose level Control, time 5 day
[3] = 29 mg/kg, 72 h, dose level Low, time 3 day

With `NC(=O)NC(=O)Cc1ccccc1` [PHENACEMIDE] the “ABSOLUTE BASOPHIL” value [1] was 0 CELLS/uL, the “ABSOLUTE EOSINOPHIL” value [1] was 15.17 CELLS/uL and the “ABSOLUTE LYMPHOCYTE” value [1] was 10149.83 CELLS/uL. The “ABSOLUTE MONOCYTE” value [1] was 193.33 CELLS/uL, the “ABSOLUTE SEGMENTED NEUTROPHIL” value [1] was 1575 CELLS/uL and the BASOPHIL [1] was 0%. The EOSINOPHIL [1] was 0.17%, the “ERYTHROCYTE COUNT” value [1] was 5.53 x10E6/uL and the HEMATOCRIT [1] was 34.7%. The HEMOGLOBIN [1] was 12.78 G/DL, the “LEUKOCYTE COUNT” value [1] was 11.93 x10E3/uL and the LYMPHOCYTE [1] was 85.5%. For the same molecule, the “MEAN CORPUSCULAR HEMOGLOBIN” value [1] was 23.15 pg, the “MEAN CORPUSCULAR HEMOGLOBIN CONCENTRATION” value [1] was 36.9 G/DL and the “MEAN CORPUSCULAR VOLUME” value [1] was 62.82 fL. For the same molecule, the MONOCYTE [1] was 1.5%, the NEUTROPHIL [1] was 12.83% and the “NUCLEATED RED BLOOD CELLS” value [1] was 0.5 /100WBC. For the same molecule, the “PLATELET COUNT” value [1] was 994.17 x10E3/uL, the “ALANINE AMINOTRANSFERASE” value [1] was 48.17 u/L and the ALBUMIN [1] was 4.37 G/DL. For the same molecule, the “ALKALINE PHOSPHATASE” value [1] was 436.5 u/L, the “ASPARTATE AMINOTRANSFERASE” value [1] was 83.17 u/L and the “BLOOD UREA NITROGEN” value [1] was 14.67 mg/dL. The “CARBON DIOXIDE” value [1] was 30.83 mmol/L, the CHLORIDE [1] was 99.17 MEQ/L and the CHOLESTEROL [1] was 86.33 mg/dL. For the same molecule, the “CREATINE PHOSPHOKINASE” value [1] was 243.33 u/L, the CREATININE [1] was 0.25 mg/dL and the GLUCOSE [1] was 158 mg/dL. The “LACTATE DEHYDROGENASE” value [1] was 262.33 u/L, the LIPASE [1] was 11 u/L and the PHOSPHORUS [1] was 12.07 mg/dL. For the same molecule, the POTASSIUM [1] was 6.52 MEQ/L, the SODIUM [1] was 142.45 MEQ/L and the “TOTAL BILIRUBIN” value [1] was 0.17 mg/dL. For the same molecule, the “TOTAL PROTEIN” value [1] was 6.25 G/DL, the “URIC ACID” value [1] was 1.42 mg/dL and the “ABSOLUTE BASOPHIL” value [2] was 0 CELLS/uL. The “ABSOLUTE EOSINOPHIL” value [2] was 0 CELLS/uL, the “ABSOLUTE LYMPHOCYTE” value [2] was 10076.67 CELLS/uL and the “ABSOLUTE MONOCYTE” value [2] was 124 CELLS/uL. For the same molecule, the “ABSOLUTE SEGMENTED NEUTROPHIL” value [2] was 966 CELLS/uL, the BASOPHIL [2] was 0% and the EOSINOPHIL [2] was 0%. For the same molecule, the “ERYTHROCYTE COUNT” value [2] was 5.57 x10E6/uL, the HEMATOCRIT [2] was 33.37% and the HEMOGLOBIN [2] was 12.73 G/DL. The “LEUKOCYTE COUNT” value [2] was 11.17 x10E3/uL, the LYMPHOCYTE [2] was 90.33% and the “MEAN CORPUSCULAR HEMOGLOBIN” value [2] was 22.9 pg. For the same molecule, the “MEAN CORPUSCULAR HEMOGLOBIN CONCENTRATION” value [2] was 38.18 G/DL, the “MEAN CORPUSCULAR VOLUME” value [2] was 59.97 fL and the MONOCYTE [2] was 1%. For the same molecule, the NEUTROPHIL [2] was 8.67%, the “NUCLEATED RED BLOOD CELLS” value [2] was 0 /100WBC and the “PLATELET COUNT” value [2] was 1078 x10E3/uL. For the same molecule, the “ALANINE AMINOTRANSFERASE” value [2] was 37.17 u/L, the ALBUMIN [2] was 4.2 G/DL and the “ALKALINE PHOSPHATASE” value [2] was 322.17 u/L. For the same molecule, the “ASPARTATE AMINOTRANSFERASE” value [2] was 67.67 u/L, the “BLOOD UREA NITROGEN” value [2] was 14 mg/dL and the “CARBON DIOXIDE” value [2] was 27.67 mmol/L. The CHLORIDE [2] was 102.17 MEQ/L, the CHOLESTEROL [2] was 67.67 mg/dL and the “CREATINE PHOSPHOKINASE” value [2] was 171.83 u/L. For the same molecule, the CREATININE [2] was 0.27 mg/dL, the GLUCOSE [2] was 172 mg/dL and the “LACTATE DEHYDROGENASE” value [2] was 85.33 u/L. It also gave an LIPASE [2] of 8.67 u/L, a PHOSPHORUS [2] of 12 mg/dL and a POTASSIUM [2] of 6.09 MEQ/L. For the same molecule, the SODIUM [2] was 144.82 MEQ/L, the “TOTAL BILIRUBIN” value [2] was 0.13 mg/dL and the “TOTAL PROTEIN” value [2] was 6.07 G/DL. The “URIC ACID” value [2] was 2.13 mg/dL, the “ABSOLUTE BASOPHIL” value [3] was 0 CELLS/uL and the “ABSOLUTE EOSINOPHIL” value [3] was 0 CELLS/uL. The “ABSOLUTE LYMPHOCYTE” value [3] was 6638.67 CELLS/uL, the “ABSOLUTE MONOCYTE” value [3] was 81.67 CELLS/uL and the “ABSOLUTE SEGMENTED NEUTROPHIL” value [3] was 1179.67 CELLS/uL. The BASOPHIL [3] was 0%, the EOSINOPHIL [3] was 0% and the “ERYTHROCYTE COUNT” value [3] was 4.84 x10E6/uL. For the same molecule, the HEMATOCRIT [3] was 29.67%, the HEMOGLOBIN [3] was 11.57 G/DL and the “LEUKOCYTE COUNT” value [3] was 7.9 x10E3/uL. The LYMPHOCYTE [3] was 84%, the “MEAN CORPUSCULAR HEMOGLOBIN” value [3] was 23.9 pg and the “MEAN CORPUSCULAR HEMOGLOBIN CONCENTRATION” value [3] was 39 G/DL. For the same molecule, the “MEAN CORPUSCULAR VOLUME” value [3] was 61.37 fL, the MONOCYTE [3] was 1% and the NEUTROPHIL [3] was 15%. The “NUCLEATED RED BLOOD CELLS” value [3] was 0.67 /100WBC, the “PLATELET COUNT” value [3] was 982 x10E3/uL and the “ALANINE AMINOTRANSFERASE” value [3] was 51 u/L. For the same molecule, the ALBUMIN [3] was 4.1 G/DL, the “ALKALINE PHOSPHATASE” value [3] was 430.67 u/L and the “ASPARTATE AMINOTRANSFERASE” value [3] was 87.33 u/L. For the same molecule, the “BLOOD UREA NITROGEN” value [3] was 15.67 mg/dL, the “CARBON DIOXIDE” value [3] was 30 mmol/L and the CHLORIDE [3] was 101 MEQ/L. The CHOLESTEROL [3] was 78.67 mg/dL, the “CREATINE PHOSPHOKINASE” value [3] was 358 u/L and the CREATININE [3] was 0.27 mg/dL. The GLUCOSE [3] was 152.67 mg/dL, the “LACTATE DEHYDROGENASE” value [3] was 97 u/L and the LIPASE [3] was 9.67 u/L. For the same molecule, the PHOSPHORUS [3] was 12.5 mg/dL, the POTASSIUM [3] was 6.3 MEQ/L and the SODIUM [3] was 145.1 MEQ/L. The “TOTAL BILIRUBIN” value [3] was 0.13 mg/dL, the “TOTAL PROTEIN” value [3] was 5.83 G/DL and the “URIC ACID” value [3] was 0.97 mg/dL.
